This is an account of results in US11839651B2, “Immunogenic compositions and uses thereof” (INSTITUTE FOR RESEARCH IN BIO-MEDICINE, priority 2015, dated 2023).

This assay concerns Tfh cells (via P2X7). Nature of the assay: Epithelial permeability to ATP: Tfh cell recovery in Peyer's patches after daily gavage. Conditions: wild type mice, two weeks after treatment. It is filed as in vivo. From the text:
In order to assess epithelial permeability to ATP in the small intestine, mice were gavaged daily with ATPγS (a non-hydrolysable analogue of ATP). As Tfh cells are sensitive to extracellular ATP via P2X7 the inventors analysed Tfh cell recovery in Peyer's patches two weeks after treatment.

Take `Nc1ncnc2c1ncn2[C@@H]1O[C@H](COP(=O)(O)OP(=O)(O)OP(O)(O)=S)[C@@H](O)[C@H]1O` [ATPγS]: the “Tfh cells in Peyer's patches” value was “significant reduction”.
